Measured values as given in PubChem BioAssay (NCI).
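GI50: concentration for 50% inhibition of growth. TGI denotes the concentration required for complete inhibition of growth.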

Tests used:
Assay in all cases: NCI tumour cell line growth inhibition, 384-well format
SF-539 CNS = test system: SF-539 CNS
OVCAR-8 ovarian = test system: OVCAR-8 ovarian
U251 glioblastoma = test system: U251 glioblastoma
SN12C renal = test system: SN12C renal
EKVX NSCLC = test system: EKVX NSCLC
K-562 leukemia = test system: K-562 leukemia
IGROV1 ovarian = test system: IGROV1 ovarian
RPMI-8226 leukemia = test system: RPMI-8226 leukemia
NCI-H460 NSCLC = test system: NCI-H460 NSCLC
OVCAR-3 ovarian = test system: OVCAR-3 ovarian
HOP-92 NSCLC = test system: HOP-92 NSCLC
SK-OV-3 ovarian = test system: SK-OV-3 ovarian
CAKI-1 renal = test system: CAKI-1 renal

Question: How did the GI50 (SF-539 CNS) turn out when `N#CCC1(n2cc(-c3ncnc4[nH]ccc34)cn2)CN(C2CCN(C(=O)c3ccnc(C(F)(F)F)c3F)CC2)C1` was run?
Answer: > 76.2 µM

Question: What about the TGI (SF-539 CNS) of the same compound?
Answer: > 100 µM

Question: What about the GI50 (OVCAR-8 ovarian) of the same compound?
Answer: > 100 µM

Question: What about the TGI (OVCAR-8 ovarian) of the same compound?
Answer: > 100 µM

Question: And the GI50 (U251 glioblastoma)?
Answer: > 100 µM

Question: What about the TGI (U251 glioblastoma) of the same compound?
Answer: > 100 µM

Question: And the GI50 (SN12C renal)?
Answer: 83.1 µM

Question: And the TGI (SN12C renal)?
Answer: > 100 µM

Question: And the GI50 (EKVX NSCLC)?
Answer: > 70 µM

Question: What about the TGI (EKVX NSCLC) of the same compound?
Answer: > 100 µM

Question: And the GI50 (K-562 leukemia)?
Answer: 34.5 µM

Question: And the TGI (K-562 leukemia)?
Answer: > 100 µM

Question: What about the GI50 (IGROV1 ovarian) of the same compound?
Answer: > 76 µM

Question: And the TGI (IGROV1 ovarian)?
Answer: > 100 µM

Question: What about the GI50 (RPMI-8226 leukemia) of the same compound?
Answer: 22.2 µM

Question: And the TGI (RPMI-8226 leukemia)?
Answer: 65.7 µM

Question: And the GI50 (NCI-H460 NSCLC)?
Answer: 49.6 µM

Question: And the TGI (NCI-H460 NSCLC)?
Answer: > 100 µM

Question: What about the GI50 (OVCAR-3 ovarian) of the same compound?
Answer: > 71.5 µM

Question: What about the TGI (OVCAR-3 ovarian) of the same compound?
Answer: > 100 µM

Question: And the GI50 (HOP-92 NSCLC)?
Answer: 40.1 µM

Question: And the TGI (HOP-92 NSCLC)?
Answer: > 100 µM

Question: And the GI50 (SK-OV-3 ovarian)?
Answer: > 73.7 µM

Question: And the TGI (SK-OV-3 ovarian)?
Answer: > 100 µM

Question: And the GI50 (CAKI-1 renal)?
Answer: > 84.9 µM

Question: What about the TGI (CAKI-1 renal) of the same compound?
Answer: > 100 µM

Question: `CNCc1ccc(-c2[nH]c3cc(F)cc4c3c2CCNC4=O)cc1` was tested. Which GI50 (SF-539 CNS) did it give?
Answer: 12.4 µM

Question: And the TGI (SF-539 CNS)?
Answer: 25.1 µM

Question: And the GI50 (OVCAR-8 ovarian)?
Answer: 10.4 µM

Question: What about the TGI (OVCAR-8 ovarian) of the same compound?
Answer: 23.7 µM

Question: What about the GI50 (U251 glioblastoma) of the same compound?
Answer: 14.4 µM

Question: What about the TGI (U251 glioblastoma) of the same compound?
Answer: 32.5 µM

Question: What about the GI50 (SN12C renal) of the same compound?
Answer: 14.9 µM

Question: And the TGI (SN12C renal)?
Answer: 31 µM

Question: What about the GI50 (EKVX NSCLC) of the same compound?
Answer: 16.1 µM

Question: And the TGI (EKVX NSCLC)?
Answer: 30.9 µM

Question: And the GI50 (K-562 leukemia)?
Answer: 7.92 µM

Question: And the TGI (K-562 leukemia)?
Answer: 20.1 µM

Question: What about the GI50 (IGROV1 ovarian) of the same compound?
Answer: 10.4 µM

Question: What about the TGI (IGROV1 ovarian) of the same compound?
Answer: 25.4 µM

Question: What about the GI50 (RPMI-8226 leukemia) of the same compound?
Answer: 8.37 µM

Question: And the TGI (RPMI-8226 leukemia)?
Answer: 21.6 µM

Question: And the GI50 (NCI-H460 NSCLC)?
Answer: 6.31 µM

Question: And the TGI (NCI-H460 NSCLC)?
Answer: 19.6 µM

Question: What about the GI50 (OVCAR-3 ovarian) of the same compound?
Answer: 16 µM

Question: What about the TGI (OVCAR-3 ovarian) of the same compound?
Answer: 31 µM

Question: What about the GI50 (HOP-92 NSCLC) of the same compound?
Answer: 12.9 µM

Question: And the TGI (HOP-92 NSCLC)?
Answer: 27.9 µM

Question: What about the GI50 (SK-OV-3 ovarian) of the same compound?
Answer: 20.6 µM

Question: What about the TGI (SK-OV-3 ovarian) of the same compound?
Answer: 45.3 µM

Question: What about the GI50 (CAKI-1 renal) of the same compound?
Answer: 7.56 µM

Question: And the TGI (CAKI-1 renal)?
Answer: 19.8 µM
